From the supplement of paper PMC10307832

What was measured:
Assay in all cases: relative viability (nuclei count vs DMSO), 5 days (fraction); higher = more cells survive
Bleomycin + Palbociclib = compound: CC1=C(N=C(N=C1N)[C@H](CC(=O)N)NC[C@@H](C(=O)N)N)C(=O)N[C@@H]([C@H](C2=CN=CN2)OC3C(C(C(C(O3)CO)O)O)OC4C(C(C(C(O4)CO)O)OC(=O)N)O)C(=O)N[C@H](C)[C@H]([C@H](C)C(=O)N[C@@H]([C@@H](C)O)C(=O)NCCC5=NC(=CS5)C6=NC(=CS6)C(=O)NCCC[S+](C)C)O [Bleomycin] + CC(=O)c1c(C)c2cnc(Nc3ccc(N4CCNCC4)cn3)nc2n(C2CCCC2)c1=O [Palbociclib] (partner 0.5 µM); settings: main component drawn
Method in brief: (§1)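 Each reported value is a median over duplicate plates. It expresses relative viability: treated-well nuclei count divided by vehicle-well nuclei count. Lung cancer cell lines in 1536-well plates were dosed by pin tool a day after seeding, alone with one drug or with a fixed anchor-drug dose plus five library-drug doses (not always all listed) in √10 steps, and nuclei were counted after 5 days.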

Etoposide + Crizotinib = compound: COc1cc([C@@H]2c3cc4c(cc3[C@@H](O[C@@H]3O[C@@H]5CO[C@@H](C)O[C@H]5[C@H](O)[C@H]3O)[C@H]3COC(=O)[C@H]23)OCO4)cc(OC)c1O [Etoposide] + C[C@@H](Oc1cc(-c2cnn(C3CCNCC3)c2)cnc1N)c1c(Cl)ccc(F)c1Cl [Crizotinib] (partner 1 µM)
Method in brief: as §1

Etoposide + Linsitinib = compound: COc1cc([C@@H]2c3cc4c(cc3[C@@H](O[C@@H]3O[C@@H]5CO[C@@H](C)O[C@H]5[C@H](O)[C@H]3O)[C@H]3COC(=O)[C@H]23)OCO4)cc(OC)c1O [Etoposide] + C[C@]1(O)C[C@@H](c2nc(-c3ccc4ccc(-c5ccccc5)nc4c3)c3c(N)nccn32)C1 [Linsitinib] (partner 1 µM)
Method in brief: as §1

Bleomycin + Navitoclax = compound: CC1=C(N=C(N=C1N)[C@H](CC(=O)N)NC[C@@H](C(=O)N)N)C(=O)N[C@@H]([C@H](C2=CN=CN2)OC3C(C(C(C(O3)CO)O)O)OC4C(C(C(C(O4)CO)O)OC(=O)N)O)C(=O)N[C@H](C)[C@H]([C@H](C)C(=O)N[C@@H]([C@@H](C)O)C(=O)NCCC5=NC(=CS5)C6=NC(=CS6)C(=O)NCCC[S+](C)C)O [Bleomycin] + CC1(C)CCC(c2ccc(Cl)cc2)=C(CN2CCN(c3ccc(C(=O)NS(=O)(=O)c4ccc(N[C@H](CCN5CCOCC5)CSc5ccccc5)c(S(=O)(=O)C(F)(F)F)c4)cc3)CC2)C1 [Navitoclax] (partner 0.5 µM); settings: main component drawn
Method in brief: as §1

| Cell Line | relative viability (Bleomycin + Palbociclib; first compound 0.01 µM) | relative viability (Bleomycin + Palbociclib; first compound 0.03162 µM) | relative viability (Bleomycin + Palbociclib; first compound 0.1 µM) | relative viability (Bleomycin + Palbociclib; first compound 0.3162 µM) | relative viability (Bleomycin + Palbociclib; first compound 1 µM) | relative viability (Etoposide + Crizotinib; first compound 0.01 µM) | relative viability (Etoposide + Crizotinib; first compound 0.03162 µM) | relative viability (Etoposide + Crizotinib; first compound 0.1 µM) | relative viability (Etoposide + Crizotinib; first compound 0.3162 µM) | relative viability (Etoposide + Crizotinib; first compound 1 µM) | relative viability (Etoposide + Linsitinib; first compound 0.01 µM) | relative viability (Etoposide + Linsitinib; first compound 0.03162 µM) | relative viability (Etoposide + Linsitinib; first compound 0.1 µM) | relative viability (Etoposide + Linsitinib; first compound 0.3162 µM) | relative viability (Etoposide + Linsitinib; first compound 1 µM) | relative viability (Bleomycin + Navitoclax; first compound 0.01 µM) | relative viability (Bleomycin + Navitoclax; first compound 0.03162 µM) | relative viability (Bleomycin + Navitoclax; first compound 0.1 µM) | relative viability (Bleomycin + Navitoclax; first compound 0.3162 µM) | relative viability (Bleomycin + Navitoclax; first compound 1 µM) |
| --- | --- | --- | --- | --- | --- | --- | --- | --- | --- | --- | --- | --- | --- | --- | --- | --- | --- | --- | --- | --- |
| NCI-H650 | 0.282 | 0.34 | 0.307 | 0.255 | 0.2 | 0.568 | 0.831 | 0.416 | 0.339 | 0.174 | 0.856 | 0.809 | 0.452 | 0.445 | 0.187 |  |  |  |  |  |
| NCI-H661 | 0.39 | 0.398 | 0.354 | 0.335 | 0.312 | 1.03 | 0.981 | 0.997 | 0.845 | 0.736 | 0.591 | 0.547 | 0.388 | 0.398 | 0.235 |  |  |  |  |  |
| NCI-H1299 |  |  |  |  |  | 0.965 | 1 | 1.04 | 0.948 | 0.757 | 0.973 | 1.03 | 1 | 0.879 | 0.7 | 0.977 | 1.01 | 0.922 | 0.396 | 0.376 |
| NCI-H1395 | 0.518 | 0.549 | 0.499 | 0.341 | 0.342 |  |  |  |  |  | 1 | 1.33 | 0.836 | 0.897 | 0.656 | 0.829 | 0.944 | 0.709 | 0.535 | 0.496 |
| NCI-H1563 |  |  |  |  |  | 0.95 | 0.757 | 0.685 | 0.595 | 0.448 | 1.17 | 1.05 | 0.957 | 0.673 | 0.612 |  |  |  |  |  |
